Active and inactive are the calls of the source. The rule behind the calls is not given here.
How the values were obtained:
Mus musculus [1] = assay: Immunomodulatory activity in iv dosed BALB/c mouse xenografted with mouse 4T1 cells assessed as macrophage polarization by measuring proportion of M2 macrophages administered for 21 days by CyTOF analysis; format: functional, organism-based; conditions: time 21.0 day
4T1 [2] = assay: Anti-metastatic activity against mouse 4T1 cells assessed as reduction in neutrophil extranuclear traps formation by measuring decrease in H3cit positivity in tumor at 10 umol/kg, iv for 21 days by immunofluorescence analysis; format: functional, organism-based; conditions: dose 10.0 µmol/kg, time 21.0 day
Mus musculus [3] = assay: Immunomodulatory activity in iv dosed BALB/c mouse xenografted with mouse 4T1 cells assessed as decrease in proportion of aged neutrophils (CD194hi|CD62Llo) in tumor tissues administered for 21 days by CyTOF analysis; format: functional, organism-based; conditions: time 21.0 day
4T1 [4] = assay: Antitumor activity against mouse 4T1 cells xenografted in BALB/c mouse assessed as reduction in tumor volume at 2 to 10 umol/kg, iv for 21 days; format: functional, organism-based; conditions: dose 2-10 µmol/kg, time 21.0 day
[5] = Drug uptake in mouse 4T1 cells assessed as drug localization in cytoplasm at 50 uM measured after 48 hrs by Hoechst33342 staining based confocal laser scanning microscopy; format: ADME, cell-based; conditions: 4t1, 48 h
4T1 [6] = assay: Cytotoxicity against mouse 4T1 cells assessed as reduction in cell viability measured after 48 hrs by MTT assay; conditions: 4T1, 48 h
4T1 [7] = assay: Anti-metastatic activity against mouse 4T1 cells xenografted in BALB/c mouse assessed as reduction in number of lung metastatic tumor nodules at 5 to 10 umol/kg, iv for 21 days; format: functional, organism-based; conditions: dose 5-10 µmol/kg, time 21.0 day
[8] = Hepatotoxicity in BALB/c mouse xenografted with mouse 4T1 cells assessed as serum AST level at 2 to 10 umol/kg, iv for 21 days; format: toxicity, organism-based; conditions: in vivo, 504 h, dose 2-10 µmol/kg, time 21 day
Sarcoma-180 [9] = assay: Antitumor activity against Sarcoma-180 mouse model assessed as inhibition of tumor growth at 10 umol/kg; format: functional
[10] = Toxicity in BALB/c mouse xenografted with mouse 4T1 cells assessed as liver morphological changes at 10 umol/kg, iv for 21 days by Hematoxylin-Eosin staining based analysis; format: organism-based; conditions: in vivo, 504 h, dose 10 µmol/kg, time 21 day
[11] = Toxicity in BALB/c mouse xenografted with mouse 4T1 cells assessed as decrease in body weight at 2 to 10 umol/kg, iv measured after 9 to 15 days; format: organism-based; conditions: in vivo, dose lower 2 µmol/kg, time lower 9 day, dose upper 10 µmol/kg, time upper 15 day
4T1 [12] = assay: Induction of cell morphological changes in mouse 4T1 cells assessed as reduction in pseudopodia on cell surface at 50 uM measured after 48 hrs by scanning electron microscopy; format: functional, cell-based
[13] = Drug uptake in mouse bone marrow neutrophils assessed as drug localization in nucleus at 50 uM measured after 48 hrs by Hoechst33342 staining based confocal laser scanning microscopy; format: ADME, cell-based; conditions: neutrophil
Mus musculus [14] = assay: Immunomodulatory activity in iv dosed BALB/c mouse xenografted with mouse 4T1 cells assessed as macrophage polarization by measuring increase in proportion of M1 macrophages administered for 21 days by CyTOF analysis; format: functional, organism-based; conditions: time 21.0 day
4T1 [15] = assay: Anti-metastatic activity against mouse 4T1 cells assessed as reduction in tumor cell lesions in lungs at 10 umol/kg, iv for 21 days by Hematoxylin-Eosin staining; format: functional, organism-based; conditions: dose 10.0 µmol/kg, time 21.0 day
[16] = biological target: Protein-arginine deiminase type-4 (Mus musculus) (UniProt Q9Z183); assay: Inhibition of PAD4 in mouse bone marrow neutrophils assessed as reduction in citrullinated histone level at 100 uM measured after 48 hrs by Hoechst33342 staining based confocal laser scanning microscopy; format: cell-based; conditions: Neutrophil
[17] = biological target: Protein-arginine deiminase type-4 (Mus musculus) (UniProt Q9Z183); assay: Inhibition of PAD4 in mouse bone marrow neutrophils assessed as reduction in H3 cit expression by measuring red filamentous histone structure at 50 uM measured after 48 hrs by Hoechst33342 staining based confocal laser scanning microscopy; format: cell-based; conditions: Neutrophil
[18] = Toxicity in BALB/c mouse xenografted with mouse 4T1 cells assessed as kidney morphological changes at 10 umol/kg, iv for 21 days by Hematoxylin-Eosin staining based analysis; format: organism-based; conditions: in vivo, 504 h, dose 10 µmol/kg, time 21 day
4T1 [19] = assay: Anti-metastatic activity against mouse 4T1 cells assessed as reduction in neutrophil extranuclear traps formation by measuring decrease in Ly6G-labeled neutrophils in tumor at 10 umol/kg, iv for 21 days by immunofluorescence analysis; format: functional, organism-based; conditions: dose 10.0 µmol/kg, time 21.0 day
[20] = Drug uptake in mouse 4T1 cells assessed as layer of green fluorescence around the cell membrane at 50 uM measured after 48 hrs by Hoechst33342 staining based confocal laser microscopy; format: ADME; conditions: 4t1, 48 h
4T1 [21] = assay: Anti-metastatic activity against mouse 4T1 cells assessed as reduction in tumor cell lesions in lungs at 2 umol/kg, iv for 21 days by Hematoxylin-Eosin staining; format: functional, organism-based; conditions: dose 2.0 µmol/kg, time 21.0 day
[22] = Toxicity in BALB/c mouse xenografted with mouse 4T1 cells assessed as spleen morphological changes at 10 umol/kg, iv for 21 days by Hematoxylin-Eosin staining based analysis; format: organism-based; conditions: in vivo, 504 h, dose 10 µmol/kg, time 21 day
4T1 [23] = assay: Anti-metastatic activity against mouse 4T1 cells assessed as reduction in inflammatory cell infiltration in lungs at 5 umol/kg, iv for 21 days by Hematoxylin-Eosin staining; format: functional, organism-based; conditions: dose 5.0 µmol/kg, time 21.0 day
Sarcoma-180 [24] = assay: Antitumor activity against Sarcoma-180 mouse model assessed as tumor weight at 10 umol/kg (reference value: 1.65 +/-0.2 gms); format: functional; conditions: dose 10 µmol/kg
[25] = Nephrotoxicity in BALB/c mouse xenografted with mouse 4T1 cells assessed as serum creatinine level at 2 to 10 umol/kg, iv for 21 days; format: toxicity, organism-based; conditions: in vivo, 504 h, dose 2-10 µmol/kg, time 21 day
Lewis lung carcinoma = assay: Cytotoxicity against mouse Lewis lung carcinoma cells assessed as effect on cell viability at 3.125 to 100 uM measured after 48 hrs by MTT assay; format: functional, cell-based; conditions: dose 3.125-100 µM
L02 = assay: Cytotoxicity against human HL7702 cells assessed as effect on cell viability at 3.125 to 100 uM measured after 48 hrs by MTT assay; format: toxicity, cell-based; conditions: l02, 48 h, dose 3.125-100 µM
[26] = Drug uptake in mouse 4T1 cells assessed as increase in green fluorescence intensity at 50 uM measured for 24 hrs flow cytometry; format: ADME, cell-based; conditions: 4t1, 24 h
[27] = Toxicity in BALB/c mouse xenografted with mouse 4T1 cells assessed as heart morphological changes at 10 umol/kg, iv for 21 days by Hematoxylin-Eosin staining based analysis; format: organism-based; conditions: in vivo, 504 h, dose 10 µmol/kg, time 21 day
4T1 [28] = assay: Induction of cell morphological changes in mouse 4T1 cells assessed as increase in number of cells with shrank mitochondria measured after 48 hrs by transmission electron microscopy; format: functional, cell-based
[29] = Nephrotoxicity in BALB/c mouse xenografted with mouse 4T1 cells assessed as serum BUN level at 2 to 10 umol/kg, iv for 21 days; format: toxicity, organism-based; conditions: in vivo, 504 h, dose 2-10 µmol/kg, time 21 day
4T1 [30] = assay: Antitumor activity against mouse 4T1 cells xenografted in BALB/c mouse assessed as reduction in tumor weight at 10 umol/kg, iv for 21 days; format: functional, organism-based; conditions: dose 10.0 µmol/kg, time 21.0 day
Mus musculus [31] = assay: Immunomodulatory activity in iv dosed BALB/c mouse xenografted with mouse 4T1 cells assessed as increase in normal neutrophils in tumor tissues administered for 21 days by CyTOF analysis; format: functional, organism-based; conditions: time 21.0 day
4T1 [32] = assay: Anti-metastatic activity against mouse 4T1 cells assessed as reduction in tumor cell lesions in lungs at 5 umol/kg, iv for 21 days by Hematoxylin-Eosin staining; format: functional, organism-based; conditions: dose 5.0 µmol/kg, time 21.0 day
[33] = biological target: Protein-arginine deiminase type-4 (Mus musculus) (UniProt Q9Z183); assay: Inhibition of PAD4 in mouse 4T1 cells assessed as reduction in citrullinated histone level at 100 uM measured after 48 hrs by Hoechst33342 staining based confocal laser scanning microscopy; format: cell-based
4T1 [34] = assay: Induction of cell morphological changes in mouse 4T1 cells assessed as rounded tumor cells at 50 uM measured after 48 hrs by scanning electron microscopy; format: functional, cell-based
[35] = Drug uptake in human HL7702 cells assessed as green fluorescence intensity at 50 uM measured after 48 hrs by Hoechst33342 staining based confocal laser microscopy; format: ADME, cell-based; conditions: l02, 48 h
4T1 [36] = assay: Cytotoxicity against mouse 4T1 cells assessed as effect on cell viability at 3.125 to 100 uM measured after 48 hrs by MTT assay; format: functional, cell-based; conditions: dose 3.125-100 µM
[37] = Hepatotoxicity in BALB/c mouse xenografted with mouse 4T1 cells assessed as serum ALT level at 2 to 10 umol/kg, iv for 21 days; format: toxicity, organism-based; conditions: in vivo, 504 h, dose 2-10 µmol/kg, time 21 day

Chain of Protein-arginine deiminase type-4 (Mus musculus) (Q9Z183 whole entry): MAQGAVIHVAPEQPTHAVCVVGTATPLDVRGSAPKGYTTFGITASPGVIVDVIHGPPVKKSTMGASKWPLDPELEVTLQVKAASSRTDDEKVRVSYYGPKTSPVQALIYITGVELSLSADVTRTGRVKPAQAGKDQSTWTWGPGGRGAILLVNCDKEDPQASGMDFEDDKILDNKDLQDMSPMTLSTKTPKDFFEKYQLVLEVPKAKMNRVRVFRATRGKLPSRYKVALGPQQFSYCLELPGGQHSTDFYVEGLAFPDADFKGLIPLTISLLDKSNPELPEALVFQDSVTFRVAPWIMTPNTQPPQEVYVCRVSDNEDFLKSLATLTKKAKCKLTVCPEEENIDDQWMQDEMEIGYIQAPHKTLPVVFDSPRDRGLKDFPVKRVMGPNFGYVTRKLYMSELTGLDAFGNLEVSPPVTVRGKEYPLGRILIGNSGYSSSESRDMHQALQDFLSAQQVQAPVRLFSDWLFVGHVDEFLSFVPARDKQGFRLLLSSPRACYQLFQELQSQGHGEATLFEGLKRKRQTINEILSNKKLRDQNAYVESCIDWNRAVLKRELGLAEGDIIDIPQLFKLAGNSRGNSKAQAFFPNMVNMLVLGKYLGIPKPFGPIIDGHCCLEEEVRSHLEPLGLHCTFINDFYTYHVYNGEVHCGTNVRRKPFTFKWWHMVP

N=C(CCl)NCCC[C@H](NC(=O)c1cc([N+](=O)[O-])c2nonc2c1)C(=O)NCc1cccc(B(O)O)c1
Activity (Mus musculus [1]): inactive
Activity (4T1 [2]): Active
Activity (Mus musculus [3]): Active
Activity (4T1 [4]): Active
Drug uptake [5]: Active
IC50 (4T1 [6]): > 100 µM
Activity (4T1 [7]): Active
Activity [8]: Non-Toxic
inhibition in vivo at 10 µmol/kg (Sarcoma-180 [9]): 49.2%
Activity [10]: Non-Toxic
Activity [11]: Non-Toxic
Activity (4T1 [12]): Active
Drug uptake [13]: Active
Activity (Mus musculus [14]): Active
Activity (4T1 [15]): Active
inhibition [16]: Active
inhibition [17]: Active
Activity [18]: Non-Toxic
Activity (4T1 [19]): Active
Drug uptake [20]: Active
Activity (4T1 [21]): inactive
Activity [22]: Non-Toxic
Activity (4T1 [23]): inactive
Activity (Sarcoma-180 [24]): 0.84 g
Activity [25]: Non-Toxic
Activity (Lewis lung carcinoma): inactive
Activity (L02): Non-Toxic
Drug uptake [26]: Active
Activity [27]: Non-Toxic
Activity (4T1 [28]): Active
Activity [29]: Non-Toxic
Activity (4T1 [30]): Active
Activity (Mus musculus [31]): Active
Activity (4T1 [32]): Active
inhibition [33]: Active
Activity (4T1 [34]): Active
Drug uptake [35]: Not Active
Activity (4T1 [36]): inactive
Activity [37]: Non-Toxic

— ChEMBL document CHEMBL5620423, “Highly-tumor-targeted PAD4 inhibitors with PBA modification inhibit tumors in vivo by specifically inhibiting the PAD4-H3cit-NETs pathway in neutrophils” (Eur J Med Chem, 2023)
